# Data taken from patent US7135615B2, “Chromosome doubling method” (The Curators of the University of Missouri, priority 2001, dated 2006).
# Marks after values point to notes of the source that are not given here.
# Test system: maize haploid seedlings of various origin
# Test: doubled haploid production trial, combined data (Total/Average) of haploids of eight different origins
# Conditions: for Ear: Plants with kernels after selfing % / Tassel: No. of fertile anthers extruded/tassel / Tassel: No. of fertile sectors/tassel / Tassel: Plants with fertile sectors % / Ear: Plants with kernels after selfing No. / Tassel: Plants with fertile sectors No. / No. of plants Survived / Ear: No. of kernels produced/ear: Total/Average of eight origins, 600 kPa, 2 days; for Ear: No. of kernels produced/ear: selfed
# Experimental: Ten to nineteen plants were treated for each plot. Self pollinations were conducted on these treated haploids if there were fertile sectors on the tassel. Pollen grains were collected carefully on a sheet of paper and transferred to the silks repeatedly. Silks and husks were cut back prior to pollination in order to permit maximum seed set. The numbers of fertile tassel and ear sectors, as well as the numbers of anthers and selfed kernels were recorded. Statistical analyses were as described above.
smiles,measurement,setting,value
"[N-]=[N+]=O [nitrous oxide gas, nitrous oxide]",Ear: Plants with kernels after selfing %,5 leaf stage,36** %
same,Tassel: No. of fertile anthers extruded/tassel,5 leaf stage,32.3** /tassel
same,Tassel: No. of fertile sectors/tassel,5 leaf stage,0.9** /tassel
same,Tassel: Plants with fertile sectors %,5 leaf stage,61** %
same,Ear: Plants with kernels after selfing No.,"5 leaf stage, 95 survived",33
same,Tassel: Plants with fertile sectors No.,"5 leaf stage, 95 survived",58
same,No. of plants Survived,"5 leaf stage, 102 treated",95
same,Ear: No. of kernels produced/ear,5 leaf stage,4.4** /ear
same,Ear: Plants with kernels after selfing %,6 leaf stage,44%
same,Tassel: No. of fertile anthers extruded/tassel,6 leaf stage,74.3 /tassel
same,Tassel: No. of fertile sectors/tassel,6 leaf stage,2.1** /tassel
same,Tassel: Plants with fertile sectors %,6 leaf stage,78** %
same,Ear: Plants with kernels after selfing No.,"6 leaf stage, 90 survived",39
same,Tassel: Plants with fertile sectors No.,"6 leaf stage, 90 survived",70
same,No. of plants Survived,"6 leaf stage, 97 treated",90
same,Ear: No. of kernels produced/ear,6 leaf stage,8.6** /ear
same,Ear: Plants with kernels after selfing %,7 leaf stage,34** %
same,Tassel: No. of fertile anthers extruded/tassel,7 leaf stage,63.5** /tassel
same,Tassel: No. of fertile sectors/tassel,7 leaf stage,2.8** /tassel
same,Tassel: Plants with fertile sectors %,7 leaf stage,74** %
same,Ear: Plants with kernels after selfing No.,"7 leaf stage, 90 survived",29
same,Tassel: Plants with fertile sectors No.,"7 leaf stage, 90 survived",67
same,No. of plants Survived,"7 leaf stage, 101 treated",90
same,Ear: No. of kernels produced/ear,7 leaf stage,7.0** /ear
same,effect of treatment on fertility,"haploids derived from A619, B73 and W22×W23",no significant effect
same,treated haploids that produced double haploid progenies after self pollination,"haploids induced from Oh43, A619×B73, and Oh43×Mol7",about 30%
